According to publication PMC8036666, “Biological and Physico-Chemical Characteristics of Arginine-Rich Peptide Gemini Surfactants with Lysine and Cystine Spacers” (International Journal of Molecular Sciences, 2021):
Values after ≈ are worked out from the molar mass of the structure shown. Like-named read-outs stand apart in the source and are kept apart here. Marks after values point to notes of the source that are not given here. Where a SMILES comes first, the peptide text is derived from it. Bridges are numbered along the chain shown (N, C = ends). Roman numbers before positions name the chains, in order. Side-chain parts run from the residue outwards. The star is where a group is joined. Myristoyl = CCCCCCCCCCCCCC(=O)*; Lauroyl = CCCCCCCCCCCC(=O)*; Decanoyl = CCCCCCCCCC(=O)*; Octanoyl = CCCCCCCC(=O)*

Tests used:
S. aureus ATCC 33591 = assay type: cell-based, Staphylococcus aureus
Procedure: (§1) Minimal inhibitory concentrations of lipopeptides were determined in the presence of human serum to evaluate the effect of enzymatic degradation and protein binding of lipopeptides on antimicrobial activity. Serum concentrations were 1% and 10% (v/v). S. aureus (ATCC 33591), P. aeruginosa (ATCC 9027), and C. glabrata (ATCC 15126) were selected to this study.
(§2) The MICs were determined by the broth microdilution method according to the Clinical and Laboratory Standard Institute guidelines. For this purpose, initial inoculums of bacteria (5 × 10^5 CFU/mL) in MHB and yeasts (2 × 10^3 CFU/mL) in RPMI-1640 with 2% D-glucose were exposed to the ranging concentration of lipopeptides (0.5–256 μg/mL) and incubated at 37 °C for 18 h and 24 h, respectively. The experiments were conducted on 96-well microtiter polystyrene plates (Kartell, Noviglio, Italy). The growth was assessed visually after incubation, and the MIC was assumed as the lowest peptide concentration at which a noticeable growth of microorganisms was inhibited. All experiments were conducted in triplicate.
(§3) The MICs were determined in the presence of normal human serum (NHS; Sigma-Aldrich, Human Serum, Normal) in concentrations of 1 and 10% (v/v). NHS was stored frozen at −20 °C and thawed just before use. Microorganisms were cultivated as described in 3.4.1. Serial dilutions of compounds, inoculum density, medium, and incubation conditions were prepared as described in Section 3.4.2. Stock solutions of test compounds were prepared in appropriate culture medium.

[1] = test system: E. coli ML-35 (ATCC 43827); test: Inner membrane (IM) permeabilization kinetics, ONPG; assay type: cell-based, Escherichia coli; settings: for ti (t2), incubation time at the intersection of two tangents, IM permeabilization: 32 µg/mL; for ti (t1), incubation time at the intersection of two tangents, IM permeabilization: 64 µg/mL
Source text: (§4) The permeabilization of E. coli ML-35 (ATCC 43827) membranes was studied for selected compounds (A4, B2, C2, B7, and C7) to compare their activity and membrane disruption over time. […] For OM and IM permeabilization, CENTA and ONPG were used, respectively. The permeabilization of OM causes the release of periplasmic β-lactamase, which hydrolyzes CENTA’s β-lactam ring to form a chromophore, 2-nitro-5-thiobenzoate (TNB) anion, while the disruption of IM results in the release of β-galactosidase, which hydrolyzes ONPG into galactose and a chromophore, ortho-nitrophenol (ONP). Both products of enzymatic reaction absorb light at 405 nm.
Inner and outer membranes permeabilization kinetics were evaluated using Escherichia coli ML-35 (ATCC 43827) and chromogenic substrates—CENTA (BioVision, Milpitas, CA, USA) and o-nitrophenyl-β-d-galactopyranoside (ONPG) (Sigma-Aldrich, Steinheim, Germany), as described previously. To examine OM permeabilization, CENTA was used as a β-lactamase substrate. In effect of OM permeabilization, the enzyme can hydrolyze CENTA’s β-lactam ring.

C. glabrata ATCC 15126 = assay type: cell-based, Candida glabrata
Procedure: as §1, §2, §3

[2] = test system: E. coli ML-35 (ATCC 43827)
Source text: as §4, §2
Inner and outer membranes permeabilization kinetics were evaluated using Escherichia coli ML-35 (ATCC 43827) and chromogenic substrates—CENTA (BioVision, Milpitas, CA, USA) and o-nitrophenyl-β-d-galactopyranoside (ONPG) (Sigma-Aldrich, Steinheim, Germany), as described previously. To examine OM permeabilization, CENTA was used as a β-lactamase substrate. In effect of OM permeabilization, the enzyme can hydrolyze CENTA’s β-lactam ring. The resulting color change (2-nitro-5-thiobenzoate anion, TNB^-) could be measured spectrophotometrically at 405 nm. The IM permeabilization was monitored with ONPG, which is a chromogenic β-galactosidase substrate. The product of this reaction ([…]) was measured spectrophotometrically at 405 nm (Multiskan GO Microplate Spectrophotometer, Thermo Fisher Scientific, Vantaa, Finland). […] Bacteria were incubated in lysogeny broth medium (LB; Biocorp, Warszawa, Poland) for 24 h at 37 °C. Subsequently, the cells were diluted in a fresh LB medium and incubated at 37 °C up to a mid-log phase (ca. 3 h). The culture was centrifuged (3 min, 1100× g) and rinsed twice with a PBS. The bacteria were resuspended in PBS up to a concentration of 5 × 10^6 CFU/mL. The final concentration of ONPG and CENTA was 1.5 mM and 0.15 mM, respectively. The ONPG/CENTA in PBS (Sigma-Aldrich, Steinheim, Germany) was used as a negative control. […] Readings were taken every 15 min for 3 h at 37 °C [125, 142, 143, 144]. Experiments were performed in triplicate on 96-well flat bottom microtiter polystyrene plates.

P. aeruginosa ATCC 9027 = assay type: cell-based, Pseudomonas aeruginosa
Procedure: as §1, §2, §3

[3] = test system: human red blood cells (hRBCs); settings: cited from earlier work

| Structure (SMILES) | MIC S. aureus ATCC 33591 (S. aureus ATCC 33591; human serum 10% (v/v)) | MIC C. glabrata ATCC 15126 (C. glabrata ATCC 15126; human serum 10% (v/v)) | MIC E. coli ML-35 (ATCC 43827) [2] | MIC P. aeruginosa ATCC 9027 (P. aeruginosa ATCC 9027; human serum 10% (v/v)) | also measured |
| --- | --- | --- | --- | --- | --- |
| CCCCCCCCCCCCCC(=O)N[C@@H](CCCNC(=N)N)C(=O)N[C@@H](CCCNC(=N)N)C(N)=O [Compound A4, C14-RR-NH2] (Myristoyl-Arg-Arg-NH2) | 64 µg/mL (≈ 119 µM) | 256 µg/mL (≈ 474 µM) | 32 µg/mL (≈ 59.3 µM) | 256 µg/mL (≈ 474 µM) | ti (t2), incubation time at the intersection of two tangents, IM permeabilization [1]: 77.6 min; ti (t1), incubation time at the intersection of two tangents, IM permeabilization [1]: 39.0 min |
| CCCCCCCCCCCC(=O)N[C@@H](CCCNC(=N)N)C(=O)N[C@@H](CCCNC(=N)N)C(=O)N[C@@H](CSSC[C@H](NC(=O)[C@H](CCCNC(=N)N)NC(=O)[C@H](CCCNC(=N)N)NC(=O)CCCCCCCCCCC)C(N)=O)C(N)=O [Compound C3] (I: Lauroyl-Arg-Arg-Cys-NH2 / II: Lauroyl-Arg-Arg-Cys-NH2; disulfide I:3-II:3) | 32 µg/mL (≈ 26.1 µM) | > 256 µg/mL | – | 256 µg/mL (≈ 209 µM) | – |
| CCCCCCCCCCCC(=O)N[C@@H](CCCNC(=N)N)C(=O)N[C@@H](CCCNC(=N)N)C(N)=O [Compound A3, C12-RR-NH2] (Lauroyl-Arg-Arg-NH2) | – | – | – | – | HC50 [3]: >256 * µg/mL |
| CCCCCCCCCC(=O)N[C@@H](CCCNC(=N)N)C(=O)N[C@@H](CCCNC(=N)N)C(=O)N[C@@H](CSSC[C@H](NC(=O)[C@H](CCCNC(=N)N)NC(=O)[C@H](CCCNC(=N)N)NC(=O)CCCCCCCCC)C(N)=O)C(N)=O [Compound C2] (I: Decanoyl-Arg-Arg-Cys-NH2 / II: Decanoyl-Arg-Arg-Cys-NH2; disulfide I:3-II:3) | – | – | 32 µg/mL (≈ 27.3 µM) | – | ti (t2), incubation time at the intersection of two tangents, IM permeabilization [1]: 45.7 min; ti (t1), incubation time at the intersection of two tangents, IM permeabilization [1]: 42.0 min |
| CCCCCCCCCC(=O)N[C@@H](CCCNC(=N)N)C(=O)N[C@@H](CCCNC(=N)N)C(=O)NCCCC[C@H](NC(=O)[C@H](CCCNC(=N)N)NC(=O)[C@H](CCCNC(=N)N)NC(=O)CCCCCCCCC)C(N)=O [Compound B2] (Decanoyl-Arg-Arg-Lys([Arg-Arg-Decanoyl])-NH2) | – | – | 32 µg/mL (≈ 29.7 µM) | – | – |
| CCCCCCCC(=O)N[C@@H](CCCNC(=N)N)C(=O)N[C@@H](CCCNC(=N)N)C(N)=O [Compound A1, C8-RR-NH2] (Octanoyl-Arg-Arg-NH2) | – | – | – | – | HC50 [3]: >256 * µg/mL |
| CCCCCCC(CCCC)C(=O)N[C@@H](CCCNC(=N)N)C(=O)N[C@@H](CCCNC(=N)N)C(=O)N[C@@H](CSSC[C@H](NC(=O)[C@H](CCCNC(=N)N)NC(=O)[C@H](CCCNC(=N)N)NC(=O)C(CCCC)CCCCCC)C(N)=O)C(N)=O (some centres unmarked) [Compound C7] | 64 µg/mL (≈ 52.1 µM) | 256 µg/mL (≈ 209 µM) | 64 µg/mL (≈ 52.1 µM) | 256 µg/mL (≈ 209 µM) | ti (t2), incubation time at the intersection of two tangents, IM permeabilization [1]: 68.6 min; ti (t1), incubation time at the intersection of two tangents, IM permeabilization [1]: 43.9 min |
| CCCCCCCCCCCC(=O)N[C@@H](CCCNC(=N)N)C(=O)N[C@@H](CCCNC(=N)N)C(=O)NCCCC[C@H](NC(=O)[C@H](CCCNC(=N)N)NC(=O)[C@H](CCCNC(=N)N)NC(=O)CCCCCCCCCCC)C(N)=O [Compound B3] (Lauroyl-Arg-Arg-Lys([Arg-Arg-Lauroyl])-NH2) | 16 µg/mL (≈ 14.1 µM) | > 256 µg/mL | – | 64 µg/mL (≈ 56.4 µM) | – |
| CCCCCCC(CCCC)C(=O)N[C@@H](CCCNC(=N)N)C(=O)N[C@@H](CCCNC(=N)N)C(=O)NCCCC[C@H](NC(=O)[C@H](CCCNC(=N)N)NC(=O)[C@H](CCCNC(=N)N)NC(=O)C(CCCC)CCCCCC)C(N)=O (some centres unmarked) [Compound B7] | 8 µg/mL (≈ 7.05 µM) | 64 µg/mL (≈ 56.4 µM) | 32 µg/mL (≈ 28.2 µM) | 128 µg/mL (≈ 113 µM) | – |
| CCCCCCCC(=O)N[C@@H](Cc1ccccc1)C(=O)N[C@@H](CCCNC(=N)N)C(=O)N[C@@H](CCCNC(=N)N)C(=O)N[C@@H](CSSC[C@H](NC(=O)[C@H](CCCNC(=N)N)NC(=O)[C@H](CCCNC(=N)N)NC(=O)[C@H](Cc1ccccc1)NC(=O)CCCCCCC)C(N)=O)C(N)=O [Compound C5] (I: Octanoyl-FRRC-NH2 / II: Octanoyl-FRRC-NH2; disulfide I:4-II:4) | 256 µg/mL (≈ 182 µM) | >256 µg/mL | – | >256 µg/mL | MIC S. aureus ATCC 33591 (S. aureus ATCC 33591; human serum 0% (v/v)): 2 µg/mL (≈ 1.42 µM); MIC S. aureus ATCC 33591 (S. aureus ATCC 33591; human serum 1% (v/v)): 64 µg/mL (≈ 45.4 µM); MIC C. glabrata ATCC 15126 (C. glabrata ATCC 15126; human serum 0% (v/v)): 8 µg/mL (≈ 5.67 µM); MIC C. glabrata ATCC 15126 (C. glabrata ATCC 15126; human serum 1% (v/v)): 128 µg/mL (≈ 90.8 µM); MIC P. aeruginosa ATCC 9027 (P. aeruginosa ATCC 9027; human serum 0% (v/v)): 8 µg/mL (≈ 5.67 µM); MIC P. aeruginosa ATCC 9027 (P. aeruginosa ATCC 9027; human serum 1% (v/v)): 128 µg/mL (≈ 90.8 µM) |
| CCCCCCCCCC(=O)N[C@@H](CCCNC(=N)N)C(=O)N[C@@H](CCCNC(=N)N)C(N)=O [Compound A2, C10-RR-NH2] (Decanoyl-Arg-Arg-NH2) | – | – | – | – | HC50 [3]: >256 * µg/mL |
